Measured values reported in patent US8759392B2, “Amides as inhibitors of human secreted phospholipase A2” (The Regents of the University of California, priority 2008, dated 2014).

Assays:
[1] = tested on: secreted PLA2; conditions: known inhibitors of FIG. 1; cited from earlier work
[2] = tested on: spinal cord injury (SCI); test: Spinal cord injury (SCI) in mice
[3] = target: T1, human GVIA iPLA2 (Homo sapiens, UniProt O60733); test: Mixed micelle-based assay, inhibition of GVIA iPLA2; format: biochemical
T1 sequence (O60733 1-806): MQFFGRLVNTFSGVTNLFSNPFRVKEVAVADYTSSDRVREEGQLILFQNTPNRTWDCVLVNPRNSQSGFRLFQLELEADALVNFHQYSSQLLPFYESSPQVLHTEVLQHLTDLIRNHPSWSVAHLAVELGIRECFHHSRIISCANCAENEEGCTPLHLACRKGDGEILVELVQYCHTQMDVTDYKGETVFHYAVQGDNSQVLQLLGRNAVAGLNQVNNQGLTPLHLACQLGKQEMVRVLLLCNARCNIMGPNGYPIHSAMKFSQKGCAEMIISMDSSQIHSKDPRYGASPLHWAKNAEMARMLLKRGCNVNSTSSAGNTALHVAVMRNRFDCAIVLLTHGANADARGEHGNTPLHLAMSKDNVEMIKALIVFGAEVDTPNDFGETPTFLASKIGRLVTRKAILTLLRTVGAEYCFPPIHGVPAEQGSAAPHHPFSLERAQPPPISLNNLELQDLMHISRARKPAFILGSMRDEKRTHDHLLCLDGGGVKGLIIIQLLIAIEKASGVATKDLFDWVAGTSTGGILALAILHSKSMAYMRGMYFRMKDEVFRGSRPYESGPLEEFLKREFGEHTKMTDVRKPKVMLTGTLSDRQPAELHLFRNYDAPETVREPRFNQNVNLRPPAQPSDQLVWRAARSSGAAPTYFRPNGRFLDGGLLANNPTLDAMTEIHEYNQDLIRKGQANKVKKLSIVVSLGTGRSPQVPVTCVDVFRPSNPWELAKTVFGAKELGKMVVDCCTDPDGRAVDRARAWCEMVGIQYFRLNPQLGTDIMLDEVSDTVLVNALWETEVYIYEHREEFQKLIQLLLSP
Description: (§1) The amides were tested for inhibition of human GIVA cPLA2, GVIA iPLA2 and GV sPLA2 using previously described mixed micelle-based assays. The resulting degrees of inhibition are presented as either percent inhibition or XI(50) values. […] The XI(50) is the mole fraction of the inhibitor in the total substrate interface required to inhibit the enzyme by 50%.

[4] = target: T2, human GIVA cPLA2 (Homo sapiens, UniProt P47712); test: Mixed micelle-based assay, inhibition of GIVA cPLA2; format: biochemical
T2 sequence (P47712 1-749): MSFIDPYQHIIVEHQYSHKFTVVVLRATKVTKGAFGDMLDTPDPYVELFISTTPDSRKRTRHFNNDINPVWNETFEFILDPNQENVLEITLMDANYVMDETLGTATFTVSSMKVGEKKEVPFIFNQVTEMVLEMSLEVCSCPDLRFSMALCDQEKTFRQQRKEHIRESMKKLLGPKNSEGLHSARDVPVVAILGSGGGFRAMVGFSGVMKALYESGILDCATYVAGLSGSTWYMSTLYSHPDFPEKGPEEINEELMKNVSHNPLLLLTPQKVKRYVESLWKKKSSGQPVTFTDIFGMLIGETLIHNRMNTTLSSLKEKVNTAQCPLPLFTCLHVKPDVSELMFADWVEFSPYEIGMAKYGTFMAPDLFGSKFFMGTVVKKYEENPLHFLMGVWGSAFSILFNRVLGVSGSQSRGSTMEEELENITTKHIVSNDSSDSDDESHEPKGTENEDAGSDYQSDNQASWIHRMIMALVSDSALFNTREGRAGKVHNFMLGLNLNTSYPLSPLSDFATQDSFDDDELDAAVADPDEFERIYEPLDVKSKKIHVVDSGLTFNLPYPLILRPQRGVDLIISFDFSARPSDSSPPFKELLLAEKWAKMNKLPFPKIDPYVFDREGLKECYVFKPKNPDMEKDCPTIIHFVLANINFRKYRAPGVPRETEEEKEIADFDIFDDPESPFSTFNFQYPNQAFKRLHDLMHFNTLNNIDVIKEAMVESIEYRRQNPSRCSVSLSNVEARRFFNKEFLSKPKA
Description: as §1

[5] = target: T3, human GV sPLA2 (Homo sapiens, UniProt P39877); test: Mixed micelle-based assay, inhibition of GV sPLA2; format: biochemical; conditions: for Inhibition (% at 0.091 mol fraction) sPLA2 GIIA/GV*: 0.091 mole fraction of inhibitor, average and standard error, n = 3
T3 sequence (P39877 21-138): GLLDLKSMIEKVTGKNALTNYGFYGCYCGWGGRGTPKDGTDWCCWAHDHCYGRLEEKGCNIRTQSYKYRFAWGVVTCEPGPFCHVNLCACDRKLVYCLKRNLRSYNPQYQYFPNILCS
Description: FIG. 2 illustrates inhibition curve for an amide of the present disclosure in a mixed-micelle assay with human GV sPLA2. The amides were tested for inhibition of human GIVA cPLA2, GVIA iPLA2 and GV sPLA2 using previously described mixed micelle-based assays.

[6] = 0.091 mole fraction of inhibitor, average and standard error, n = 3

| Structure (SMILES) | Inhibition of secreted PLA2 (in words) [1] | Myelin sparing (luxol fast blue) ([2]; 28 days after SCI, […]) | Locomotor function, 9-point Basso Mouse Scale (BMS) score ([2]; administration started 1 hour after SCI, vs vehicle treated mice, significant from day 5 dpi through the follow up) | Activity on GVIA iPLA2 (in words) [3] | Activity on GIVA cPLA2 (in words) [4] | Activity on GV sPLA2 (in words) [5] | Inhibition (% at 0.091 mol fraction) sPLA2 GIIA/GV* [5] [%] | XI(50) GV sPLA2 ([5]; mole fraction of inhibitor in total substrate interface for 50% inhibition, non-linear regression (hyperbolic)) [mole fraction] | Inhibition (% at 0.091 mol fraction) iPLA2 GVIA [3, 6] [%] | XI(50) iPLA2 GVIA ([3]; mole fraction of inhibitor in total substrate interface required to inhibit the enzyme by 50%) [mole fraction] | Inhibition (% at 0.091 mol fraction) cPLA2 GIVA [4, 6] |
| --- | --- | --- | --- | --- | --- | --- | --- | --- | --- | --- | --- |
| CCC[C@H](CCC(=O)O)NC(=O)CCCCCCc1ccccc1 [Compound 2] | potent inhibitor | – | – | – | – | – | – | – | – | – | – |
| CCCC[C@H](CCC(=O)O)NC(=O)CCCCCCc1ccccc1 [Compound 9, (R)-4-(7-phenylheptanamido)octanoic acid] | – | significant myelin sparing | improved locomotor function | not affecting at all | not affecting at all | potent and selective GV sPLA2 inhibitor | > 95 | 0.003±0.0004 | – | – | – |
| O=C(CCCCc1ccccc1)C(F)(F)C(F)(F)F [FKGK11, reference compound] | – | – | – | – | – | – | 28 ± 1 | – | > 95 | 0.0096 ± 0.0008 | N.D. (N.D. signifies compounds with less than 25% inhibition (or no detectable inhibition)) |
